Test results: ChEMBL document CHEMBL1122195, “Effect of 4'-halogen substitution on the mutagenicity of trans-4-acetamidostilbene and trans-4-(N-hydroxyacetamido)stilbene in the Salmonella typhimurium test system” (1982)

These compounds were tested on Salmonella typhimurium (assay: Comparative mutagenic activity toward Salmonella Typhimurium strain TA-100 at concentration of 10 nmol/plate).
Format: functional, Salmonella enterica subsp. enterica serovar Typhimurium

In order of falling Revertants/plate:
1. CC(=O)N(O)c1ccc(/C=C/c2ccccc2)cc1  1218
2. CC(=O)N(O)c1ccc(/C=C/c2ccc(F)cc2)cc1  825
3. CC(=O)Nc1ccc(/C=C/c2ccc(F)cc2)cc1  632
4. CC(=O)Nc1ccc(/C=C/c2ccccc2)cc1  385
5. CC(=O)Nc1ccc(/C=C/c2ccc(Cl)cc2)cc1  382
6. CC(=O)N(O)c1ccc(/C=C/c2ccc(Br)cc2)cc1  374
7. CC(=O)N(O)c1ccc(/C=C/c2ccc(Cl)cc2)cc1  356
8. CC(=O)Nc1ccc(/C=C/c2ccc(Br)cc2)cc1  211
